Test results from patent publication US20240043439A1, “COMPOUNDS AS C5AR INHIBITORS” (Kira Pharmaceuticals (Suzhou) Ltd., priority 2020, published 2024).

Legend:
C5aR [1] = target: T1, C5aR (Homo sapiens (Human), UniProt P21730); assay: Inhibition of C5a-C5aR binding determined by cell migration assay (U937/C5aR cells); type: cell-based; conditions: U937/C5aR cell migration towards human C5a, 180 min
In short: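 Transwell migration through 3.0 µm pores: U937/C5aR cells in HBSS + 1% FBS were premixed with compound, with human C5a plus compound in the bottom well. After 30 min preincubation, cells migrated 180 min at 37 °C. Migrated cells were quantified by CellTiter-Glo luminescence.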

[2] = system: human C5a (hC5a) induced neutropenia; assay: C5a induced neutropenia in a cynomolgus model; type: in vivo; conditions: cynomolgus monkey, pre-dosed 4 hours before hC5a, compared to vehicle
Experimental: (§1) To study the efficacy of compounds in a non-human primate model, human C5a (hC5a) induced neutropenia is studied in a cynomolgus model. Intravenous injection of hC5a induced upregulation of adhesion molecules on blood vessel walls, leading to decreased neutrophils in the blood stream and attached to the vascular walls. Monkeys were pre-dosed with vehicle or specific compound, and 4 hours later, hC5a (10 g/kg, ACROBiosystems) was administrated and 1 minute later neutrophils are quantified in peripheral blood.
The percent change in the number of neutrophils in the blood collected after C5a injection (241 min) was calculated relative to the sample collected prior to C5a injection (239 min). The plasma concentration of each compound was calculated as the average concentration prior to C5a injection of 2 individual monkeys.

[3] = system: C5a induced CD11b upregulation on granulocytes; assay: Neutrophil CD11b FACS assay, cyno monkey whole blood after oral pre-dosing; type: in vivo; conditions: oral pre-dosing at 10 mg/kg; for EC50 at 10 mg/kg: Macaca fascicularis, Neutrophil, read-out: EC50 (C5a induced CD11b upregulation on granulocytes ex-vivo)
Experimental: (§2) Peripheral blood samples were collected from Cynomolgus monkey/huC5aR knock-in mice at indicated timepoints. 100 μl aliquots were mixed with a range of C5a concentrations and incubated at 37° C. for 30 min. Blood was cooled down on wet ice for at least 3 min, anti-CD11b monoclonal antibody (BD Biosciences) was added and incubated at 4° C. for 60 min. Red blood cells were lysed by adding erythrocyte lysis buffer (Solarbio) and incubated on ice for 10 min, white blood cells were washed by pre-cold PBS twice and suspended by 2% PFA/PBS buffer. Neutrophils were classified with flow cytometry by their forward/side-scatter properties and mean fluorescence intensity of anti-CD11b staining on cells was read by FACS (Beckman).
The percent of CD11b signal was calculated by the formula %=(MFI[C5a conc.]-MFI[C5a=0])/(MFI[max]-MFI[C5a=0])×100%. Each data point was the average of 2 individual monkeys. The plasma concentration of each compound is the average concentration prior to C5a injection of 2 individual monkeys.

C5aR [4] = target: T1, C5aR; assay: Calcium mobilization (U937/C5aR or HEK293/C5aR cells, FLIPR); type: cell-based; conditions: agonist human C5a at EC80, FLIPR
In short: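 U937 or HEK293 cells expressing human C5aR, plated overnight, then preincubated 60 min with compound. After Fluo-4 Direct dye loading (50 min at 37 °C, 10 min at room temperature), intracellular calcium rise on FLIPR was triggered by human C5a agonist at EC80.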

[5] = system: C5a induced CD11b upregulation on neutrophil; assay: Neutrophil CD11b FACS assay, human C5aR knock-in mice whole blood after oral pre-dosing; type: in vivo; conditions: oral pre-dosing 0.3 mg/kg and 3 mg/kg
Experimental: as §2
(§3) Whole blood was collected at indicated timepoints (2 hours or 12 hours after dosing compound) and further stimulated with human C5a in vitro. CD11b FACS antibody was added and incubate for 60 min at 4 C before red blood cells were lysed. The percent of CD11b signal was calculated by the formula %=(MFI[C5a conc.]-MFI[C5a=0])/(MFI[max]-MFI[C5a=0])×100%. Each data point was the average SD of 3 individual mice.
as §3, with “2 hrs” for “indicated timepoints (2 hours or 12 hours”, “compound” for “compound)”, “average” for “average SD”, “2” for “3”
as §3, with “2 hrs” for “indicated timepoints (2 hours or 12 hours”, “compound” for “compound)”, “average±SD” for “average SD”, “2” for “3”

[6] = target: human C5a receptor (C5aR) (Homo sapiens (Human), UniProt P21730); assay: Inhibition of C5a-C5aR binding (biotinylated human C5a, U937/C5aR cells, FACS)
In short: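 U937 cells stably expressing human C5aR, 3×10^6 cells/ml in PBS+0.1% BSA, were co-incubated with compound and biotinylated human C5a (30 nM, working solution) on ice for 120 min. Bound ligand was stained with FITC-streptavidin for 30 min on ice and read by flow cytometry.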

[7] = system: human C5a induced neutropenia; assay: C5a induced neutropenia in human C5aR knock-in mice model; type: in vivo; conditions: 0.3 mg/kg and 3 mg/kg, pre-dosed 2 hours before hC5a
Experimental: as §1, with “an animal” for “a non-human primate”, “C5aR knock-in mice were created by replacing the coding region of mouse C5aR with human C5aR coding sequence.” for “C5a (hC5a) induced neutropenia is studied in a cynomolgus model.”, “Human C5aR knock-in mice” for “Monkeys”, “2” for “4”, “human C5a ([…]” for “hC5a (10”
The percent change in the number of neutrophils in the blood collected after C5a injection (121 min), relative to the sample collected prior to C5a injection (119 min). The plasma concentration of each compound is the average concentration prior to C5a injection of 3 individual mice.

T1 sequence (P21730 whole entry): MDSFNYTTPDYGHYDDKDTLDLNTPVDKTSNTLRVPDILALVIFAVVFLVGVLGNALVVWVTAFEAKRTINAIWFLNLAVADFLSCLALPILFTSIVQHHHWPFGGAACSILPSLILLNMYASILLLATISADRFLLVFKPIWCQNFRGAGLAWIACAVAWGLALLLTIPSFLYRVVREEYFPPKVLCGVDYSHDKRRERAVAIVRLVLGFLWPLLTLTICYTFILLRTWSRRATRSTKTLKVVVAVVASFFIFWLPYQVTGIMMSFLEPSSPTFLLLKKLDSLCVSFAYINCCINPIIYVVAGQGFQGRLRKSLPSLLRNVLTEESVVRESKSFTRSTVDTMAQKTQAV
Chain of human C5a receptor (C5aR) (P21730 whole entry): as above

Row | IC50 (C5aR [1]) [nM] | EC50 at 10 mg/kg [3] [nM] | IC50 (C5aR [4]) [nM] | IC50 [6] [nM] | SMILES | rescue of neutropenia induced by human C5a [2] | C5a induced CD11b upregulation on granulocytes ex-vivo [3] | CD11b upregulation on neutrophil ([5]; 2 hours after dosing) | CD11b upregulation on neutrophil ([5]; 2 hours and 12 hours post-dosing) | rescue of neutropenia induced by human C5a [7]
1 | < 50 | 276 | < 50 | 50 to 500 | Cc1ccc(NC(=O)[C@H]2C[C@H]3CCC[C@H]3N(C(=O)c3c(C)cccc3F)[C@H]2c2ccc(NC3CCCC3)cc2)cc1C(F)(F)F [Compound 47, (2R,3S,4aR,7aR)-2-(4-(cyclopentylamino)phenyl)-1-(2-fluoro-6-methylbenzoyl)-N-(4-methyl-3-(trifluoromethyl)phenyl)octahydro-1H-cyclopenta[b]pyridine-3-carboxamide] | effectively rescued the neutropenia | blocked | blocked | – | –
2 | < 50 | 256 | 500 to 2000 | < 50 | Cc1cccc(F)c1C(=O)N1[C@@H]2CCC[C@@H]2C[C@H](C(=O)Nc2ccc3c(cnn3C)c2)[C@@H]1c1ccc(NC2CCCC2)cc1 [Compound 49, (2R,3S,4aR,7aR)-2-(4-(cyclopentylamino)phenyl)-1-(2-fluoro-6-methylbenzoyl)-N-(1-methyl-1H-indazol-5-yl)octahydro-1H-cyclopenta[b]pyridine-3-carboxamide] | effectively rescued the neutropenia | blocked | blocked | blocked | effectively rescued the neutropenia
3 | < 50 | – | 500 to 2000 | < 50 | Cc1cccc(F)c1C(=O)N1[C@@H]2CCC[C@@H]2C[C@H](C(=O)Nc2ccc3c(cnn3C)c2)[C@@H]1c1ccc(NC2CCOCC2)cc1 [Compound 89, (2R,3S,4aR,7aR)-1-(2-fluoro-6-methylbenzoyl)-N-(1-methyl-1H-indazol-5-yl)-2-(4-((tetrahydro-2H-pyran-4-yl)amino)phenyl)octahydro-1H-cyclopenta[b]pyridine-3-carboxamide] | – | – | blocked | – | –
4 | < 50 | – | 2000 to 10000 | 2000 to 5000 | Cc1cccc(F)c1C(=O)N1CCC[C@H](c2nc3ccc(C(C)(C)C)cc3[nH]2)[C@@H]1c1ccc(NC2CCCC2)cc1 [Compound 180, ((2R,3S)-3-(6-(tert-butyl)-1H-benzo[d]imidazol-2-yl)-2-(4-(cyclopentylamino)phenyl)piperidin-1-yl)(2-fluoro-6-methylphenyl)methanone] | – | – | – | – | –
